Broadly, the melting point is the temperature, or range, at which the solid turns liquid. `O=C1C(CCC(O)c2ccc(F)cc2)C(c2ccc(-c3ccc(C4OC(CO)C(O)C(O)C4O)cc3)cc2O)N1c1ccccc1` (stereo not drawn) returned a melting point of 152 to 160 °C.

Take `COc1ccc(N2CCN(c3c(C)c(C)c4c(c3C)C(c3ccsc3)C(C)(C)O4)CC2)cc1` (stereo not drawn): the melting point lay in the range of 128 to 131 °C.

For `COc1ccc(CNC(=O)c2ccc3n2Cc2ccccc2N(C(=O)c2ccc(-c4ccccc4C)c(OC)c2)C3)cc1`, the melting point was in the range of 178 to 179 °C.

In turn, `O=[N+]([O-])c1ccc2c(Nc3ccncc3)noc2c1` showed a melting point of 296 to 300 °C.

On to `Nc1ccc(-c2noc(-c3cnc4ccc(-c5ccc(C(F)(F)F)cc5)cn34)n2)cn1`, for which the melting point turned out to be 258 °C.

The molecule `Cc1ccc2c(c1)CNC(=O)CC2` showed a melting point of 174 to 175 °C.

In the case of `O=C(CC(C[N+](=O)[O-])c1ccccc1)c1ccc(O)cc1` (stereo not drawn), the melting point lay in the range of 112 to 113 °C.

As for `Cc1ccc([N+](=O)[O-])cc1Nc1nccc(-c2ccc(Cl)nc2)n1`, the melting point is 210 to 212 °C.

`CCOC(=O)C1=COc2ccc(OC(C)=O)cc2O1`: the melting point is 66 °C.

`Cc1nc2cccc(OCC(C)(C)NC(=O)c3cccc(O)c3)c2c(N)c1C(=O)O` displayed a melting point of 195 to 198 °C.

As to `COc1c([N+](=O)[O-])cc(C=O)c(Cl)c1O`, the melting point was 130 °C.

With `CC(=O)OCC1OC(n2cc(C#N)c3c(Cl)nc(Cl)nc32)C(OC(C)=O)C1OC(C)=O` (stereo not drawn), the melting point lay within 70 to 75 °C.

In turn, `NC(=O)/C=C1\CCc2c(Cl)cc(F)cc21` displayed a melting point of 182 to 184 °C.

Take `CCCCNc1nn(C(=O)OC)c2c1c(=O)n(CCC)c1ccccc21`: the melting point lay in the range of 147 to 149 °C.

For `CC(C)c1ccc(C(O)C(=O)O)cc1` (stereo not drawn), the melting point was in the range of 156 to 157 °C.

For the molecule `CC(C)(C)OC(=O)CON=C(C(=O)OC(c1ccccc1)c1ccccc1)c1ncsn1`, the melting point lay within 139 to 141 °C.

For `Cc1nc(-c2ccc(CN3C(=O)C4(COc5cc6c(cc54)OCCO6)c4ccccc43)cc2)no1` (stereo not drawn), the melting point lay in the range of 174 to 175 °C.

`Cc1oc(-c2ccccc2)nc1COc1ccc(COc2nn(Cc3ccc(OCc4nc(-c5ccccc5)oc4C)cc3)cc2CO)cc1` showed a melting point of 157 to 158 °C.

Regarding `CC(C)c1ccc(NC(=O)Nc2cccc(C(=O)O)c2)cc1`, the melting point lay in the range of 295 to 300 °C.

In the case of `CC(C)(C)c1ccc2c(c1)C(CO)c1cc(C(C)(C)C)ccc1-2`, the melting point fell in the range of 102 to 103 °C.

Molecule `CCCCCCCCCc1cnc(-c2ccc(O)c(F)c2)nc1` showed a melting point of 46 to 47.5 °C.

For the molecule `CCOC(=O)C(=O)c1csc(NC(=O)Nc2c(C)cccc2C)n1`, the melting point was 172 to 174 °C.

Regarding `Cn1c([N+](=O)[O-])cnc1COc1ccc(S(C)(=O)=O)cc1`, the melting point was 155 °C.

`Cc1c(C(=O)O)oc2ccccc2c1=O` showed a melting point of 192 to 193 °C.

With `CCN(CC)C(=O)c1ccc(C(c2cccc(O)c2)N2CC(C)N(CC#N)CC2C)cc1` (stereo not drawn), the melting point lay within 190 to 192 °C.

`CC(=O)c1cccc(-c2ccc(OC3SCC(O)C(O)C3O)cn2)c1` (stereo not drawn) showed a melting point of 159 to 163 °C.

On to `CCCCC(CC)CN(CCC)c1ccc(C2=C(C#N)C(=C(C#N)C#N)NC2=O)cc1` (stereo not drawn), for which the melting point was determined as 189 °C.

Regarding `O=S(=O)(Nc1cc(C(F)(F)F)ccc1-c1cc(Oc2ccc3cccnc3c2)ncn1)c1ccccc1`, the melting point lay in the range of 168 to 170 °C.

As for `O=C(O)c1cc(OCCCc2ccccc2)cc(OCCCc2ccccc2)c1`, the melting point fell in the range of 107 to 109 °C.

In turn, `IC#CCOc1ccncc1` gave a melting point of 140 to 141 °C.

Consider `Cc1ccc2c(c1)C=C(C(=O)O)C(C(F)(F)F)S2` (stereo not drawn), for which the melting point was 181 to 184 °C.

The molecule `CS(=O)c1nnc(-c2ccccc2NC(=O)c2cccc(C(F)(F)F)c2)s1` (stereo not drawn) had a melting point of 125 to 126 °C.

With `CNC(=O)C(NC(=O)Nc1n[nH]c(=S)s1)c1ccccc1` (stereo not drawn), the melting point was in the range of 240 to 241 °C.

In the case of `CCCc1cc(-c2ccccc2)ccc1C(=O)O`, the melting point was 108 °C.

Turning to `COc1ccc(N2Cc3cnc(Nc4ccc(F)cc4)nc3N([C@@H](C)CO)C2=O)c(F)c1`, the melting point was in the range of 173 to 177 °C.

The molecule `COC(=O)NC(CC(=O)c1ccc(Cl)cc1)C(=O)O` (stereo not drawn) gave a melting point of 141 to 142 °C.

In turn, `CC(=O)Nc1cccc(-c2cnc(N(C)C)nc2)c1` had a melting point of 183 to 188 °C.

The molecule `CC(=O)n1cc(-c2ccccc2)c(O)n1` had a melting point of 215 °C.

The molecule `Cc1cc(Cn2nnn(-c3cccc(C(F)(F)F)c3)c2=O)ccc1N` showed a melting point of 89 to 94 °C.

In the case of `Cn1c(N)nc2cc(CN3CCN(C(c4ccccc4)c4ccccc4)CC3)ccc21`, the melting point amounted to 268 °C.

`Nc1nc2c(s1)CCN(CC=Cc1c[nH]c3ccccc13)CC2` registered a melting point of 155 to 160 °C.

`CS(=O)(=O)Nc1ccc(-c2cc(-c3c(-c4cccc(Cl)c4)nc4ccccn34)ccn2)cc1` returned a melting point of 60 °C.

`O=C(NCC1CCN(CC2COc3ccccc3O2)CC1)c1ccccn1` (stereo not drawn) came in with a melting point of 95 to 97 °C.

`CC(C)Cc1cc(=O)c2cc(OCCCCCN3CCC(O)CC3)ccc2o1` had a melting point of 98 to 99 °C.

Molecule `S=c1n(CNc2ccc(Br)cc2)nc(-c2ccncc2)n1-c1ccccc1` showed a melting point of 208 to 209 °C.

In turn, `Cc1cc(Cl)c(C(=O)OC(C)c2nc3c(c(=O)n(C)c(=O)n3C)n2C)c(C)n1` (stereo not drawn) returned a melting point of 168 to 170 °C.

In the case of `COC(=O)CCc1conc1-c1ccc(Cl)c(F)c1`, the melting point lay within 57 to 58 °C.

Consider `CCSc1nccc(C)c1N`, for which the melting point was in the range of 37 to 38 °C.

Turning to `CNc1nc(C)nc(N2CCCC(C)C2)n1` (stereo not drawn), the melting point was in the range of 155 to 156 °C.

For `NC(=O)[C@@H]1[C@H](Nc2c(Br)cnc3[nH]c(-c4cccnc4N4CCOCC4)nc23)[C@H]2C=C[C@@H]1C2`, the melting point worked out at 150 °C.

The molecule `Cc1nnc2n1-c1ccc(C#CCN3C(=O)CN(C)C(=O)c4ccccc43)cc1C(c1ccccc1F)=NC2` displayed a melting point of 179 to 182 °C.

`Cc1cc(Oc2cccc(C(F)(F)F)c2)nc(C(=O)O)c1` came in with a melting point of 75 to 77 °C.

Take `CN(c1cccc2cc(C3=NCC(CC(N)=O)S3)[nH]c12)S(=O)(=O)c1ccccn1` (stereo not drawn): the melting point was in the range of 149 to 150 °C.

`Nc1nc(N)c(-c2ccc(Cl)cc2Cl)c(C(=O)O)n1` came in with a melting point of 221 °C.

In turn, `O=[N+]([O-])c1ccccc1Nc1ccccc1O` returned a melting point of 67 to 70 °C.

Molecule `CCc1c(OC)nc2nc(C(=N)NO)cn2c1C` had a melting point of 249 to 250 °C.

`CC(C)CC1CNCCNCCNCCNCCN1` (stereo not drawn) came in with a melting point of 70 to 76 °C.

`CON1C(C)(C)CC(OCC2CO2)CC1(C)C` (stereo not drawn) registered a melting point of 47 to 49 °C.

For the molecule `CCOC(=O)c1ccc2c(c1)sc1cc(Cl)ccc12`, the melting point lay in the range of 120 to 122 °C.

The molecule `CCOC(=O)CNC(=O)c1nc2ccc(Cl)nn2n1` came in with a melting point of 175 to 177 °C.

`c1ccc(-n2c(Cn3ccnc3)nc3cccnc32)cc1` returned a melting point of 146 to 148 °C.

Regarding `CC(C)CN1N(C)Nc2c3ncnc-3c3ccncc3n21`, the melting point is 157 to 158 °C.

Take `O=C(O)COc1cccc2c(CCS(=O)(=O)C(c3ccccc3)c3ccccc3)coc12`: the melting point lay within 177 to 179 °C.

In the case of `COc1ccc2c(c1)CCN(Cc1cnc(C)nc1N)C2`, the melting point was 142 to 143 °C.

Molecule `COC1CCN(S(=O)(=O)c2ccc(S(=O)(=O)Cl)cc2C(F)(F)F)CC1` had a melting point of 117 to 119 °C.

`CCCCCCc1ccc(S(=O)(=O)Nc2nncs2)cc1` displayed a melting point of 125 to 126 °C.

For `O=S1(=O)N=CN(C2CCCCC2)c2cc(Cl)c(Cl)cc21`, the melting point was in the range of 219 to 222 °C.

On to `COC(=O)C1(C)CCc2cc(C(=O)c3ccccc3)c(OC)cc21` (stereo not drawn), for which the melting point was in the range of 135 to 137 °C.

`Nc1cccc(Cn2c(-c3ccccc3)ccc2-c2ccccc2)n1` yielded a melting point of 143 to 144 °C.

Molecule `CCC(=O)Nc1c(C#N)cnn1-c1c(Cl)cc(Cl)c(Cl)c1Cl` had a melting point of 203 to 204 °C.

On to `Nc1nc2nc(N3CCNCC3)nc(N)c2nc1-c1ccccc1`, for which the melting point fell in the range of 233 to 236 °C.

As to `Cc1nc(Cl)c2c(n1)CN=C(c1ccccc1)c1cc(Cl)ccc1-2`, the melting point lay in the range of 190 to 192 °C.

Regarding `N#Cc1ccc2c(c1)ncn2-c1cccc(I)c1`, the melting point lay in the range of 177 to 179 °C.

`CCOC(=O)C1(C(=O)Nc2ccc(Br)cc2C)OC1C` (stereo not drawn) had a melting point of 57 to 60 °C.

With `CCCC(=O)C1=C(O)CC(c2ccc3occc3c2)CC1=O` (stereo not drawn), the melting point came out at 71 °C.

Molecule `CCCCCC(O)CNC` (stereo not drawn) had a melting point of 40 to 43 °C.

For `CC(C)(COC(=O)c1ccc(C(=O)O)cc1)COC(=O)c1ccc(C(=O)O)cc1`, the melting point fell in the range of 287 to 288 °C.

In turn, `CC(=O)N1CC(=O)NC(=O)N1c1cc(Cl)c(Oc2ccc(S(C)(=O)=O)cc2)c(Cl)c1` gave a melting point of 267 °C.

In turn, `CCC1c2cccn2-c2ccc(Cl)cc2N1C(=O)c1ccc(O)cc1O` (stereo not drawn) showed a melting point of 198 to 201 °C.

`O=C1CCCC(=O)c2cc(OCc3ccccc3)ccc2N1` displayed a melting point of 169 to 170 °C.

On to `O=C(CC1CCOCC1)N[C@H]1CC[C@H](CCN2CCN(c3nccc4ccoc34)CC2)CC1`, for which the melting point was 213 °C.

For the molecule `CC(C)CC1(C(CCN2C(=O)c3c(F)ccc(F)c3C2=O)C(=O)NO)CCN(CCc2ccccc2)C1=O` (stereo not drawn), the melting point fell in the range of 131 to 132 °C.

For `CCn1cc(C(=O)C(=O)O)c2ccc(-c3ccc(OC(F)(F)F)cc3)cc21`, the melting point lay within 204 to 205 °C.

`COc1ccc(C2c3c(C)c(NC(=O)CC(C)(C)C)c(C)c(C)c3OC2(C)C)cc1` (stereo not drawn): the melting point lay within 175 to 176 °C.

`O=C1N(Cc2cccnc2)c2ccccc2C12COc1ccc3nonc3c12` (stereo not drawn) yielded a melting point of 230 to 232 °C.

As to `COCCOc1ccc(CC(OC)C(=O)O)c(Oc2ncc(C(F)(F)F)cc2Cl)c1` (stereo not drawn), the melting point lay within 93 to 96 °C.

As for `Clc1ccc(CC[C@H]2CN(Cc3ccccc3)CCN2Cc2ccccc2)cc1`, the melting point is 87 to 90 °C.

Molecule `O=[N+]([O-])c1ccc2oc(-c3ccccc3)cc2c1` came in with a melting point of 159 °C.

(Values after a melting point compilation (Tetko et al.; mined from patent text by program, amines drawn as free bases though some values may be those of a salt).)
